Measured values reported in patent publication US11078228B2, “Ectonucleotidase inhibitors and methods of use thereof” (Calithera Biosciences, Inc., priority 2018, dated 2021).
pIC50: −log10 of the molar value.

Target: recombinant CD73 (Homo sapiens (Human), UniProt P21589)
Assay: Assay 2: Inhibition of the CD73 enzyme in vitro (0.05 nM CD73, 1 hour 37° C., Malachite Green)
Type: biochemical
Details: 0.05 nM CD73, 50 μM AMP, 1 hour at 37° C.
In short: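 Free phosphate was quantified from absorbance at 630 nm against a phosphate standard curve. This was read 5 min after Malachite Green was added at room temperature. Beforehand, the recombinant soluble enzyme reacted for 1 hour at 37° C.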

Chain of recombinant CD73 (P21589 27-547): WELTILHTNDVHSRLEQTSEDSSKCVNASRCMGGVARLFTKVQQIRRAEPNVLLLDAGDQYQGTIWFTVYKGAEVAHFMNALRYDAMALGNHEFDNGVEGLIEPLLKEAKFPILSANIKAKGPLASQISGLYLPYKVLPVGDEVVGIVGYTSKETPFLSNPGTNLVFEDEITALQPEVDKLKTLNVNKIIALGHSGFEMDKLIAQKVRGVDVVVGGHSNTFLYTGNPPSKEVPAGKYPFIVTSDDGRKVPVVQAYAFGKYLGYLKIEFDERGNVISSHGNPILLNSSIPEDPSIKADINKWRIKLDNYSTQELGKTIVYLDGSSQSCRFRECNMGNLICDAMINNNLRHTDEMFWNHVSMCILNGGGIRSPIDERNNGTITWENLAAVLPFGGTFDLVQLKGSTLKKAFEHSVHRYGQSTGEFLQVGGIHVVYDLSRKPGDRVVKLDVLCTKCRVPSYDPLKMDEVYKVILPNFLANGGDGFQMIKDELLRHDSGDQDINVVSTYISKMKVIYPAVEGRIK

First: C#C[C@@]1(O)[C@@H](COC(C(=O)O)C(=O)O)O[C@@H](n2cnc3c(NC)nc(Cl)nc32)[C@@H]1O [Example 117, 2-(((2R,3S,4R,5R)-5-(2-chloro-6-(methylamino)-9H-purin-9-yl)-3-ethynyl-3,4-dihydroxytetrahydrofuran-2-yl)methoxy)malonic acid]
Second: C#C[C@@]1(O)[C@@H](COC(Cc2cscn2)(C(=O)O)C(=O)O)O[C@@H](n2cnc3c(N)nc(Cl)nc32)[C@@H]1O [Example 126, 2-(((2R,3S,4R,5R)-5-(6-amino-2-chloro-9H-purin-9-yl)-3-ethynyl-3,4-dihydroxytetrahydrofuran-2-yl)methoxy)-2-(thiazol-4-ylmethyl)malonic acid]
The pIC50 of the first is 0.81 log units lower: 7.24 for the first, 8.05 for the second. The second is the more potent here.

Going from `C#C[C@@]1(O)[C@@H](COC(Cc2ccc(N3CCCNC3=O)cc2)(C(=O)O)C(=O)O)O[C@@H](n2nc(C)c3ccc(Cl)nc32)[C@@H]1O` [Example 131, 2-(((2R,3S,4R,5R)-5-(6-chloro-3-methyl-1H-pyrazolo[3,4-b]pyridin-1-yl)-3-ethynyl-3,4-dihydroxytetrahydrofuran-2-yl)methoxy)-2-(4-(2-oxotetrahydropyrimidin-1(2H)-yl)benzyl)malonic acid] to `C#C[C@@]1(O)[C@@H](COC(Cc2ccc(-c3ccccc3C(=O)O)cc2)(C(=O)O)C(=O)O)O[C@@H](n2cnc3c(N)nc(Cl)nc32)[C@@H]1O` [Example 54, 2-(((2R,3S,4R,5R)-5-(6-amino-2-chloro-9H-purin-9-yl)-3-ethynyl-3,4-dihydroxytetrahydrofuran-2-yl)methoxy)-2-((2′-carboxy-[1,1′-biphenyl]-4-yl)methyl)malonic acid], the pIC50 rises from < 7.00 to 9.70.

First: C#C[C@@]1(O)[C@@H](COC(Cc2ccccc2)(C(=O)O)C(=O)O)O[C@@H](n2cnc3c(NCc4ccncc4)nc(Cl)nc32)[C@@H]1O [Example 78, 2-benzyl-2-(((2R,3S,4R,5R)-5-(2-chloro-6-((pyridin-4-ylmethyl)amino)-9H-purin-9-yl)-3-ethynyl-3,4-dihydroxytetrahydrofuran-2-yl)methoxy)malonic acid]
Second: C#C[C@@]1(O)[C@@H](COC(Cc2ccccc2)(C(=O)O)C(=O)O)O[C@@H](n2cnc3c(NCc4ccc(Cl)cc4)nc(Cl)nc32)[C@@H]1O [Example 87, 2-benzyl-2-(((2R,3S,4R,5R)-5-(2-chloro-6-((4-chlorobenzyl)amino)-9H-purin-9-yl)-3-ethynyl-3,4-dihydroxytetrahydrofuran-2-yl)methoxy)malonic acid]
The pIC50 of the first is 0.52 log units lower: 8.70 for the first, 9.22 for the second.

Compared with `C#C[C@@]1(O)[C@@H](COC(Cc2ccccc2)(C(=O)O)C(=O)O)O[C@@H](n2cnc3c(N4CC[C@@H](CO)C4)nc(Cl)nc32)[C@@H]1O` [Example 102, 2-benzyl-2-(((2R,3S,4R,5R)-5-(2-chloro-6-((R)-3-(hydroxymethyl)-pyrrolidin-1-yl)-9H-purin-9-yl)-3-ethynyl-3,4-dihydroxytetrahydrofuran-2-yl)methoxy)malonic acid], `C#C[C@@]1(O)[C@@H](COC(Cc2ccccc2)(C(=O)O)C(=O)O)O[C@@H](n2cnc3c(N(C)C4CC4)nc(Cl)nc32)[C@@H]1O` [Example 105, 2-benzyl-2-(((2R,3S,4R,5R)-5-(2-chloro-6-(cyclopropyl(methyl)amino)-9H-purin-9-yl)-3-ethynyl-3,4-dihydroxytetrahydrofuran-2-yl)methoxy)malonic acid] is 0.30 log units lower in pIC50: 9.00 for the first, 8.70 for the second. The first is the more potent here.

In the case of `C#C[C@@]1(O)[C@@H](COC(Cc2ccc(-c3ccccc3)c(C(=O)O)c2)(C(=O)O)C(=O)O)O[C@@H](n2cnc3c(N)nc(Cl)nc32)[C@@H]1O` [Example 13, 2-(((2R,3S,4R,5R)-5-(6-amino-2-chloro-9H-purin-9-yl)-3-ethynyl-3,4-dihydroxytetrahydrofuran-2-yl)methoxy)-2-((2-carboxy-[1,1′-biphenyl]-4-yl)methyl)malonic acid], the pIC50 was 9.52.
